Earlier results as cited in patent US20070083941A1, “Rat TRPM7 polynucleotide and encoded protein” (Wyeth, priority 2005, published 2007).

Molecular target: TRPM7 (Homo sapiens, UniProt Q96QT4)
Settings: high concentrations of intracellular MgATP and Mg^2+; basal activity of TRPM7; read-out: IC50 of inhibition of TRPM7

Chain of TRPM7 (Q96QT4 whole entry, species assumed): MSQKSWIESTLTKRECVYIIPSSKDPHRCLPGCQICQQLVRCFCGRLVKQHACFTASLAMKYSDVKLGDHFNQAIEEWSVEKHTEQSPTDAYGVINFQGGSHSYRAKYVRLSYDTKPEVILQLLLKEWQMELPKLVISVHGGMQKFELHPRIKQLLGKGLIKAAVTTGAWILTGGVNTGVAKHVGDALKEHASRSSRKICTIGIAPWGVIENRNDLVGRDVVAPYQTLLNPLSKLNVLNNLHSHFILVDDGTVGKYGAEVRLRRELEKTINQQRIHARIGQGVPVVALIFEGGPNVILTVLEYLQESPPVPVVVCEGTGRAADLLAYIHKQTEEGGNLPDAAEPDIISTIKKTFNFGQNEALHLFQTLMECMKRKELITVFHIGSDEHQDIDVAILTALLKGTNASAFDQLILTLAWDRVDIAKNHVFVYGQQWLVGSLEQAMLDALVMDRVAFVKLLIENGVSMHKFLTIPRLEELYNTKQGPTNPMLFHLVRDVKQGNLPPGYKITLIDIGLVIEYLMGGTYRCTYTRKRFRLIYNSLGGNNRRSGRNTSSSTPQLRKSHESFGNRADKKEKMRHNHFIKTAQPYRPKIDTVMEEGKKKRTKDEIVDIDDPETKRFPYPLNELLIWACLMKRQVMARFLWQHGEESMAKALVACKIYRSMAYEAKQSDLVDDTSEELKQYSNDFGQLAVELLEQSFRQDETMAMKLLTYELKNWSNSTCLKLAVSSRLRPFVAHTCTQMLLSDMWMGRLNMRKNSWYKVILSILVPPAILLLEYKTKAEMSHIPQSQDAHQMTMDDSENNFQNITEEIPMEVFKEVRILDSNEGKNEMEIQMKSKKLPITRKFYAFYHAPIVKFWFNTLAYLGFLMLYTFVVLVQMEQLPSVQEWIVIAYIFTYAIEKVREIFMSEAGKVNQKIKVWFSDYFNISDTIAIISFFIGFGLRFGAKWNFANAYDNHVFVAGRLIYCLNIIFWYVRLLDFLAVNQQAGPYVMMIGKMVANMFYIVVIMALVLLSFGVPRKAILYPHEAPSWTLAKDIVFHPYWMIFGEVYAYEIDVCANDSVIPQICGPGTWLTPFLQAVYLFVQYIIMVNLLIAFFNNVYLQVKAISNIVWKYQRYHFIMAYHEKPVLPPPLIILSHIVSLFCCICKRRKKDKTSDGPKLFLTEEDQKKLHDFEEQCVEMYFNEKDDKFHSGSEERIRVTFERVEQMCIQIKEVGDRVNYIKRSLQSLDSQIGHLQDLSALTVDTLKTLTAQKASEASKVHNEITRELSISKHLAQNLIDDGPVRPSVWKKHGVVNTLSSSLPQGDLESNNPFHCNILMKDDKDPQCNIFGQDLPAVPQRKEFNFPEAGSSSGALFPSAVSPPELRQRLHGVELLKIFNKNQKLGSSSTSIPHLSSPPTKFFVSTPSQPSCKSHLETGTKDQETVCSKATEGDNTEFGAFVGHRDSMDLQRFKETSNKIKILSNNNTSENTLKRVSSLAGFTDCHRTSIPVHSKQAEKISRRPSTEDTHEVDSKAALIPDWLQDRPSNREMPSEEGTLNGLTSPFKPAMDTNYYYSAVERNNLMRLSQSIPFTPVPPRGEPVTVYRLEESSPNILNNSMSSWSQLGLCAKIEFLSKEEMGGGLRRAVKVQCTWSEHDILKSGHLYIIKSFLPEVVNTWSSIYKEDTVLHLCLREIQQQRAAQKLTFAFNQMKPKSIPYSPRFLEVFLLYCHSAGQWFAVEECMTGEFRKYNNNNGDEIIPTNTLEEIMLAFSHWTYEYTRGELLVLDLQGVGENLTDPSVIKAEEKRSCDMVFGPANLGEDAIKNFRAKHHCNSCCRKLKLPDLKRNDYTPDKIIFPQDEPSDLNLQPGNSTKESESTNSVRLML

| Compound | IC50 [µM] |
| --- | --- |
| Nc1ncnc2c1ncn2[C@@H]1O[C@H](COP(=O)(O)OP(=O)(O)OP(=O)(O)O)[C@@H](O)[C@H]1O [MgATP] | ~600 |
| [Mg+2] [Mg^2+] | ~600 |
